Laboratory results from patent US10457655B2, “Compounds and compositions for inhibition of FASN” (FORMA Therapeutics, Inc., priority 2013, dated 2019).

Target: FASN enzyme (Homo sapiens, UniProt P49327)
Experiment: Enzymatic Assay for FASN Inhibitors
Assay type: biochemical
Conditions: not given
How it was run: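 40 nM FASN preincubated with compound 60 min at 25° C in HEPES pH 7.3 buffer with 0.04% Triton X-100. Then 20 μM acetyl-CoA, 60 μM malonyl-CoA and 100 μM NADPH added for 90 min, quenched with CPM thiol probe; fluorescence 360/530 nm, IC50 by four-parameter fit.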

Sequence of FASN enzyme (P49327 whole entry): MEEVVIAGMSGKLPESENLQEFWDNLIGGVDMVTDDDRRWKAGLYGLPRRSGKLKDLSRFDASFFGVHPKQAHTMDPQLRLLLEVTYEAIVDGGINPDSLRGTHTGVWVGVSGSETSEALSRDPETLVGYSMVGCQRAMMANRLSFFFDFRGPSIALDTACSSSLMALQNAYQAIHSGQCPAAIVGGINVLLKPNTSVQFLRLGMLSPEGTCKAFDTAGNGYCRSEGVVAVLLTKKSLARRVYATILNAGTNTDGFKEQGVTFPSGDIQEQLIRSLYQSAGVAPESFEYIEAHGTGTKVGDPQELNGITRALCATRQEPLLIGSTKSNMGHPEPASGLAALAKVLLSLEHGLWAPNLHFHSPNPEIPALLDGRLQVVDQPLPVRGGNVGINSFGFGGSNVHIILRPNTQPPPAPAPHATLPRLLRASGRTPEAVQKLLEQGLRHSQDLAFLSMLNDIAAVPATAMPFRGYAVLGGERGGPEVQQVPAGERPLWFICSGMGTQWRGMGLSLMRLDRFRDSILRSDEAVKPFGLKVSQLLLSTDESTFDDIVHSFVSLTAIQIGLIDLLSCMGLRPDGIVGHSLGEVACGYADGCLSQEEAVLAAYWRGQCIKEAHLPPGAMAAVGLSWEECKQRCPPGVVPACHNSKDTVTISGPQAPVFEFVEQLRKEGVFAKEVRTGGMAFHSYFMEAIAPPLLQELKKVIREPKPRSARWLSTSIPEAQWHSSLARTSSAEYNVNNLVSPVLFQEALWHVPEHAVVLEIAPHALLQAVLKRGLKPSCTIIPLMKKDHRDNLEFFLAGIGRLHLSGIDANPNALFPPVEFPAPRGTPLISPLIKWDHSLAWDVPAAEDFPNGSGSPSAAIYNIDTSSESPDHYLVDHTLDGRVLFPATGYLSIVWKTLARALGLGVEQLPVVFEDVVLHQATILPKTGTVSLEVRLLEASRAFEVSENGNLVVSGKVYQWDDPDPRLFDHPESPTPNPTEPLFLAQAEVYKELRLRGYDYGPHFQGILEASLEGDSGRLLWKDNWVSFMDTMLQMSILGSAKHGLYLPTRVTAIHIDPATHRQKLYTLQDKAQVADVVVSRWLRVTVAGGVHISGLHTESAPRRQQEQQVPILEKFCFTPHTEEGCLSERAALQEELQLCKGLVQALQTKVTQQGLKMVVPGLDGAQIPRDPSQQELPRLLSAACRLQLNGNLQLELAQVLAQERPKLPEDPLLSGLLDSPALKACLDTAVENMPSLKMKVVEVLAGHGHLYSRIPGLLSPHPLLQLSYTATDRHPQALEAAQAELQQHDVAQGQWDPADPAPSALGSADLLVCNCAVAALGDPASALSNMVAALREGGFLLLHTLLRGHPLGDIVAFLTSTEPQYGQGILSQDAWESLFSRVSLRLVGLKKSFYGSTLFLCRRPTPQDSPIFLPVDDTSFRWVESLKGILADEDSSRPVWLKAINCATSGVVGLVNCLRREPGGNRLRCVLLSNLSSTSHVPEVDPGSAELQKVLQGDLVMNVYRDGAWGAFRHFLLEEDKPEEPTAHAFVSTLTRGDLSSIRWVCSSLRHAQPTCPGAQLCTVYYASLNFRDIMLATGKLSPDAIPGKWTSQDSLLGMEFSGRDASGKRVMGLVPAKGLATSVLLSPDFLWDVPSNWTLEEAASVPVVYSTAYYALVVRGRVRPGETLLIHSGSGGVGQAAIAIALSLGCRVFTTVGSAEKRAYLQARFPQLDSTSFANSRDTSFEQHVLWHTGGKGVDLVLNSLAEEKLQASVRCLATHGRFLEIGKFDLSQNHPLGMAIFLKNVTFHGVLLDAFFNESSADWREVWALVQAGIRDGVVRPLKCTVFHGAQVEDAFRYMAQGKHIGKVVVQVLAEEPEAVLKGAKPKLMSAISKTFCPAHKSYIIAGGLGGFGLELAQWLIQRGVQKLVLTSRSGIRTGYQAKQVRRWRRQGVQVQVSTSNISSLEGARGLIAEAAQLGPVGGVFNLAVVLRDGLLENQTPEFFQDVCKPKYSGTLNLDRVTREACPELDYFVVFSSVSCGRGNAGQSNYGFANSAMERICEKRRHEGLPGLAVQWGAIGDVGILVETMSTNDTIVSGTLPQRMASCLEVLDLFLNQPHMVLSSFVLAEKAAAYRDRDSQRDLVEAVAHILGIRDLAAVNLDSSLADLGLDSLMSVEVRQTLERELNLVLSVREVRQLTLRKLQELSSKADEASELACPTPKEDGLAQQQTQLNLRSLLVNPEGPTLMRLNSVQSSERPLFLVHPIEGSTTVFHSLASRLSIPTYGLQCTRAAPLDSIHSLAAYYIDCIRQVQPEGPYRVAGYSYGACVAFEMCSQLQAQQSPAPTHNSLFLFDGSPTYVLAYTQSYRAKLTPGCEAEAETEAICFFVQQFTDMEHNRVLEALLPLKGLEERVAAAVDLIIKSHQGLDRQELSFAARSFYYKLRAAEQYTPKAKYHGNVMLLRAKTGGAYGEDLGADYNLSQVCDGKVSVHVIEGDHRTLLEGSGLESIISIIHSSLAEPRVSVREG

`N#CC1(c2cccc(-c3ccc(C(=O)N4CCN(C(=O)C5(O)CC5)CC4)cc3)c2)CCOCC1` [4-(3-{4-[4-(1-hydroxycyclopropanecarbonyl)piperazine-1-carbonyl]phenyl}phenyl)oxane-4-carbonitrile] was tested. Which IC50 did it give?
Its IC50 is under 500 nM.

`CN1C(=O)Cc2c(-c3ccc(C(=O)N4CCN(C(=O)C5(O)CC5)CC4)cc3)cccc21` [4-{4-[4-(1-hydroxycyclopropanecarbonyl)piperazine-1-carbonyl]phenyl}-1-methyl-2,3-dihydro-1H-indol-2-one] was tested. Which IC50 did it give?
Its IC50 is under 500 nM.

Which IC50 does the source give for `NC(=O)c1cc2cc(-c3ccc(C(=O)N4CCN(C(=O)C5(O)CC5)CC4)cc3)ccc2[nH]1` [5-[4-({4-[(1-hydroxycyclopropyl)carbonyl]piperazin-1-yl}carbonyl)phenyl]-1H-indole-2-carboxamide] here?
The IC50 was under 500 nM.

`Nc1noc2ccc(-c3ccc(C(=O)N4CCN(C(=O)C5(N)CC5)CC4)cc3)cc12` [5-{4-[4-(1-aminocyclopropanecarbonyl)piperazine-1-carbonyl]phenyl}-1,2-benzoxazol-3-amine] was tested. Which IC50 did it give?
The IC50 was under 500 nM.

For `O=C(c1ccc(-c2cc(Cl)cc3[nH]c(=O)[nH]c23)cc1)N1CCN(C(=O)C2(O)CC2)CC1` [6-chloro-4-{4-[4-(1-hydroxycyclopropanecarbonyl)piperazine-1-carbonyl]phenyl}-2,3-dihydro-1H-1,3-benzodiazol-2-one], which IC50 is on record?
The IC50 was under 500 nM.

`N#Cc1ccc2cc(C3CCN(C(=O)N4CCN(C(=O)C5(O)CC5)CC4)CC3)ccc2c1` [6-{1-[4-(1-hydroxycyclopropanecarbonyl)piperazine-1-carbonyl]piperidin-4-yl}naphthalene-2-carbonitrile] was tested. Which IC50 did it give?
Its IC50 is under 500 nM.

Which IC50 does the source give for `Cn1nc(O)c2ccc(-c3ccc(C(=O)N4CCN(C(=O)C5(O)CC5)CC4)cc3)cc21` [6-{4-[4-(1-hydroxycyclopropanecarbonyl)piperazine-1-carbonyl]phenyl}-1-methyl-1H-indazol-3-ol] here?
Its IC50 is under 500 nM.

`CNC(=O)c1cccc(-c2ccc(C(=O)N3CCN(C(=O)C4(O)CC4)CC3)cc2)n1` [6-{4-[4-(1-hydroxycyclopropanecarbonyl)piperazine-1-carbonyl]phenyl}-N-methylpyridine-2-carboxamide] was tested. Which IC50 did it give?
Its IC50 is under 500 nM.

With `Cn1cnc2cc(-c3ccc(C(=O)N4CCN(C(=O)C5(CO)CC5)CC4)cc3)ccc21` [(1-{4-[4-(1-methyl-1H-1,3-benzodiazol-5-yl)benzoyl]piperazine-1-carbonyl}cyclopropyl)methanol] as the compound, how does the IC50 read?
Its IC50 is under 500 nM.

Same assay, conditions: FASN enzymatic assay; Table 2-2

Which IC50 does the source give for `CC(C)NC(=O)c1ccc(F)c(-c2ccc(C(=O)N3CCN(C(=O)C4(O)CC4)CC3)cc2)c1` [4-fluoro-3-[4-({4-[(1-hydroxycyclopropyl)carbonyl]piperazin-1-yl}carbonyl)phenyl]-N-(propan-2-yl)benzamide] here?
Its IC50 is 500 to 5000 nM.

How did the IC50 turn out when `CNC(=O)c1ccc(F)c(-c2ccc(C(=O)N3CCN(C(=O)C4(O)CC4)CC3)cc2)c1` [4-fluoro-3-[4-({4-[(1-hydroxycyclopropyl)carbonyl]piperazin-1-yl}carbonyl)phenyl]-N-methylbenzamide] was run?
The IC50 was 500 to 5000 nM.

How did the IC50 turn out when `O=C(c1ccc(-c2ccc3oc(=O)[nH]c3c2)cc1)N1CCN(C(=O)C2(O)CC2)CC1` [5-[4-({4-[(1-hydroxycyclopropyl)carbonyl]piperazin-1-yl}carbonyl)phenyl]-2,3-dihydro-1,3-benzoxazol-2-one] was run?
The IC50 was 500 to 5000 nM.

`O=C(c1ccc(-c2ccc3[nH]c(=O)oc3c2)cc1)N1CCN(C(=O)C2(O)CC2)CC1` [6-[4-({4-[(1-hydroxycyclopropyl)carbonyl]piperazin-1-yl}carbonyl)phenyl]-2,3-dihydro-1,3-benzoxazol-2-one] was tested. Which IC50 did it give?
The IC50 was 500 to 5000 nM.

Same assay, conditions: FASN enzymatic assay; Table 2-3

For `N#Cc1cc(F)ccc1-c1ccc(C(=O)N2CCN(C(=O)C3(O)CC3)CC2)cc1` [5-fluoro-2-[4-({4-[(1-hydroxycyclopropyl)carbonyl]piperazin-1-yl}carbonyl)phenyl]benzonitrile], which IC50 is on record?
The IC50 was at least 5000 nM.

How did the IC50 turn out when `C[C@H](O)C(=O)N1CCN(C(=O)c2ccc(-c3ccccc3)cc2)CC1` [(2S)-2-hydroxy-1-{4-[(4-phenylphenyl)carbonyl]piperazin-1-yl}propan-1-one] was run?
The IC50 was at least 5000 nM.
